In the supplement of paper PMC10307832:

Tests used:
Assay in all cases: relative viability (nuclei count vs DMSO), 5 days (fraction); higher = more cells survive
[1] = compound: C1=CC=C(C(=C1)C2=CC=C(C=C2)C3=CSC4=C3C(=C(C(=O)N4)C#N)O)O + N=C(N)NC(=N)NCCc1ccccc1 [Phenformin] (partner 250 µM)
Summary of the method: (§1)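 Lung cancer cell lines in 1536-well plates got either a single drug or a fixed anchor-drug dose together with five library-drug doses (not always all listed) in √10 steps, by pin tool, on the day after seeding. Nuclei were counted after 5 days, and relative viability is the treated-to-vehicle ratio of nuclei counts. Values are medians of duplicate plates.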

TGX 221 + Lapatinib = compound: CC1=CN2C(=O)C=C(N=C2C(=C1)C(C)NC3=CC=CC=C3)N4CCOCC4 [TGX 221] + CS(=O)(=O)CCNCc1ccc(-c2ccc3ncnc(Nc4ccc(OCc5cccc(F)c5)c(Cl)c4)c3c2)o1 [Lapatinib] (partner 2 µM)
Summary of the method: as §1

[2] = compound: O=C(CCCCCCNC(=O)c1cnc(N(c2ccccc2)c2ccccc2)nc1)NO [Ricolinostat] + N=C(N)NC(=N)NCCc1ccccc1 [Phenformin] (partner 250 µM)
Summary of the method: as §1

Ricolinostat + Olaparib = compound: O=C(CCCCCCNC(=O)c1cnc(N(c2ccccc2)c2ccccc2)nc1)NO [Ricolinostat] + O=C(c1cc(Cc2n[nH]c(=O)c3ccccc23)ccc1F)N1CCN(C(=O)C2CC2)CC1 [Olaparib] (partner 8 µM)
Summary of the method: as §1

| Cell Line | relative viability ([1]; first compound 0.08 µM) | relative viability ([1]; first compound 0.253 µM) | relative viability ([1]; first compound 0.8 µM) | relative viability ([1]; first compound 2.53 µM) | relative viability ([1]; first compound 8 µM) | relative viability (TGX 221 + Lapatinib; first compound 0.08 µM) | relative viability (TGX 221 + Lapatinib; first compound 0.253 µM) | relative viability (TGX 221 + Lapatinib; first compound 0.8 µM) | relative viability (TGX 221 + Lapatinib; first compound 2.53 µM) | relative viability (TGX 221 + Lapatinib; first compound 8 µM) | relative viability ([2]; first compound 0.08 µM) | relative viability ([2]; first compound 0.253 µM) | relative viability ([2]; first compound 0.8 µM) | relative viability ([2]; first compound 2.53 µM) | relative viability (Ricolinostat + Olaparib; first compound 0.08 µM) | relative viability (Ricolinostat + Olaparib; first compound 0.253 µM) | relative viability (Ricolinostat + Olaparib; first compound 0.8 µM) | relative viability (Ricolinostat + Olaparib; first compound 2.53 µM) |
| --- | --- | --- | --- | --- | --- | --- | --- | --- | --- | --- | --- | --- | --- | --- | --- | --- | --- | --- |
| H3255 | 0.326 | 0.39 | 0.377 | 0.347 | 0.362 | 0.301 | 0.225 | 0.24 | 0.277 | 0.211 | 0.367 | 0.358 | 0.405 | 0.416 | 0.543 | 0.529 | 0.525 | 0.506 |
| NCI-H2023 | 0.342 | 0.351 | 0.429 | 0.466 | 0.37 | 0.79 | 0.718 | 0.73 | 0.689 | 0.769 |  | 0.403 | 0.382 | 0.344 | 0.485 | 0.447 | 0.407 | 0.239 |
| NCI-H1944 | 0.155 | 0.207 | 0.166 | 0.215 | 0.175 | 0.705 | 0.784 | 0.777 | 0.836 | 0.714 | 0.181 | 0.18 | 0.174 | 0.151 | 0.404 | 0.369 | 0.308 | 0.296 |
| LOU-NH91 | 0.716 | 0.726 | 0.655 | 0.616 | 0.63 | 0.71 | 0.814 | 0.751 | 0.728 | 0.739 | 0.516 | 0.726 | 0.713 | 0.744 |  | 0.883 | 0.905 | 0.858 |
| NCI-H2347 | 0.265 | 0.429 | 0.496 | 0.342 | 0.419 | 0.945 | 0.908 | 0.976 | 0.996 | 0.915 | 0.295 | 0.32 | 0.337 | 0.302 | 0.51 | 0.604 | 0.612 | 0.586 |
| CAL-12T | 0.566 | 0.668 | 0.593 | 0.575 | 0.547 |  | 0.533 | 0.576 |  | 0.621 | 0.489 | 0.548 | 0.559 | 0.517 | 0.739 | 0.732 | 0.701 | 0.77 |
| RERF-LC-KJ | 0.397 | 0.492 | 0.412 | 0.454 | 0.352 | 0.837 | 0.824 | 0.749 | 0.829 | 0.84 | 0.452 | 0.372 | 0.406 | 0.374 | 0.897 | 0.894 | 0.773 | 0.582 |
| HCC-44 | 0.166 | 0.164 | 0.138 | 0.21 | 0.208 | 1 | 0.982 | 0.975 | 0.984 | 1.05 | 0.186 | 0.265 | 0.169 | 0.166 | 1.04 | 0.922 | 1.06 | 1 |
| NCI-H650 | 0.474 | 0.531 | 0.448 | 0.465 | 0.44 | 1 | 0.98 | 0.706 | 0.908 | 0.76 | 0.373 | 0.454 | 0.397 | 0.281 | 0.376 | 0.34 | 0.278 | 0.22 |
